Test results published in the NIST ThermoML archive (doi:10.1016/j.jct.2007.09.008).
Numbers after ± are expanded uncertainties.

Conditions: Liquid, Closed cell (Static) method

| Compound | vapor or sublimation pressure (283.1 K) [kPa] | vapor or sublimation pressure (293.2 K) [kPa] | vapor or sublimation pressure (303.1 K) [kPa] | vapor or sublimation pressure (313.1 K) [kPa] | vapor or sublimation pressure (323.2 K) [kPa] | vapor or sublimation pressure (333.1 K) [kPa] | vapor or sublimation pressure (343.1 K) [kPa] | vapor or sublimation pressure (293.1 K) [kPa] | vapor or sublimation pressure (312.9 K) [kPa] | vapor or sublimation pressure (323.3 K) [kPa] | vapor or sublimation pressure (333.3 K) [kPa] | vapor or sublimation pressure (283.2 K) [kPa] | vapor or sublimation pressure (292.9 K) [kPa] | vapor or sublimation pressure (302.9 K) [kPa] | vapor or sublimation pressure (323.1 K) [kPa] | vapor or sublimation pressure (333.2 K) [kPa] | vapor or sublimation pressure (343.2 K) [kPa] |
| --- | --- | --- | --- | --- | --- | --- | --- | --- | --- | --- | --- | --- | --- | --- | --- | --- | --- |
| CC1CCCC(=O)O1 (stereo unspecified) [2H-pyran-2-one, tetrahydro-6-methyl-] | 0.005 ± 0.002 | 0.011 ± 0.006 | 0.025 ± 0.016 | 0.054 ± 0.004 | 0.103 ± 0.006 | 0.191 ± 0.01 | 0.354 ± 0.02 | – | – | – | – | – | – | – | – | – | – |
| CCC1CCC(=O)O1 (stereo unspecified) [2(3H)-furanone, 5-ethyldihydro-] | 0.075 ± 0.008 | – | 0.221 ± 0.008 | – | – | – | 1.367 ± 0.1 | 0.128 ± 0.008 | 0.356 ± 0.016 | 0.564 ± 0.019 | 0.862 ± 0.027 | – | – | – | – | – | – |
| O=C1CCCCCO1 [6-hexanolactone] | – | – | – | 0.213 ± 0.008 | – | – | – | – | – | – | – | 0.045 ± 0.002 | 0.079 ± 0.003 | 0.131 ± 0.006 | 0.339 ± 0.012 | 0.518 ± 0.021 | 0.768 ± 0.031 |
